Experimental data reported in patent publication US6900200B2, “Tricyclic hydroxy carboxamides and derivatives thereof tocolytic oxytocin receptor antagonists” (Wyeth, priority 2001, dated 2005).
pIC50: −log10 of the molar value.

Target: T1, human oxytocin receptor (Homo sapiens, UniProt P30559)
T1 construct: host or cells: CHO cells, pcDNA3.1 vector
T1 sequence (P30559 1-389): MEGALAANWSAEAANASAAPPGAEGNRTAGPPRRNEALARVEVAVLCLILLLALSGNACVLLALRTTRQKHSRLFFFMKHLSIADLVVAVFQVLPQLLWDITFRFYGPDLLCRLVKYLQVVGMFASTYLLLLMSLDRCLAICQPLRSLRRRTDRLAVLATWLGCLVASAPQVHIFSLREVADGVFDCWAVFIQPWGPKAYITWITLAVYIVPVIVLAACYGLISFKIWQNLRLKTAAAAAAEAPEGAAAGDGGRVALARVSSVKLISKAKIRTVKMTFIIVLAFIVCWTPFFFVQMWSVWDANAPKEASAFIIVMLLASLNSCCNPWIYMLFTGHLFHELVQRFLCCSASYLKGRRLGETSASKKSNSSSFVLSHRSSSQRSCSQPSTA
Assay: Oxytocin binding in CHO cell membranes expressing human oxytocin receptors ([3H]oxytocin radioligand binding)
Settings: for pIC50: value printed in parentheses, read-out: OT (IC50); for inhibition at 0.1 µM: @ 100 nM, read-out: OT % inhibition @ 100 nM
From the text: Oxytocin Binding in Chinese Hamster Ovary Cell Membranes Expressing Human Oxytocin Receptors
Chinese Hamster Ovary (CHO) cells stably transfected with the human oxytocin receptor (cf. Tanizawa et al., U.S. Pat. No. 5,466,584 (1995) to Rohto Pharmaceutical Co. Ltd., Osaka, Japan) were obtained from M. Thibonnier, Case Western Reserve University School of Medicine, Cleveland, Ohio.
A. Passaging and Amplification of Cells
CHO cells transfected with the human oxytocin receptors obtained from M. Thibonnier (pcDNA3.1 vector) are allowed to grow to confluency (approx. >90%) in T-150 flasks under sterile conditions, in a cell culture medium of F-12 Nutrient Mixture (HAM) with L-glutamine (Gibco Cat. #11765-054) containing 15 mM HEPES (Gibco Cat. #15630-080), 1% antibiotic/antimycotic (add 5 mL 100×, Gibco Cat. #15240-062 per 500 mL F-12), 400 μg/mL of Geneticin (add 4 mL of 50 mg/mL per 500 mL F-12) and 10% Fetal Bovine Serum (Qualified, heat inactivated, Gibco Cat. #16140-063). The medium is removed by aspiration and the cells are washed with 10 mL of Hank's Balanced Salt solution (Gibco Cat. #14175-095). The salt solution is removed by aspiration and the cells trypsinized with 5 mL of trypsin-EDTA (0.05% trypsin, 0.53 mM EDTA-4Na, Gibco Cat. #25300-070) for 1 min. The trypsin is removed by aspiration and the cells dislodged by tapping. Cell Culture medium (e.g. 30 mL for 1:30 split) is immediately added and mixed well to inactivate trypsin. 1 mL of detached cells is added to new culture flasks containing fresh Cell Culture medium (e.g. into 25 mL per T-150 flask), and mixed gently. The cells are incubated at 37° C. in 5% CO2. The medium is changed at 3 to 4 days interval (or as appropriate). The cells grow to confluency (approx. >75%-95%) within 7-8 days. All steps are done under sterile conditions.
The cells are washed twice gently with Hank's Balanced Salt solution (e.g., use 10 mL per T-1 50 flask). The excess solution is removed and the cells bathed for 15-30 min. in an enzyme-free Cell Dissociation Buffer (e.g., use 8 mL Hank's Based, Gibco Cat. #13150-016 per T-150 flask) until cells are loosened. The contents are transferred to centrifuge tubes (50 mL size) kept in ice bath. All subsequent steps are done at 4° C. The tubes are centrifuged at 300×g for 15 min (1380 rpm on SORVAL, Model RT6000D, using rotor for 50 mL tubes). The supernatant is discarded and the cells suspended in homogenizing buffer (10 mM Tris-HCl containing 0.25 M sucrose and 1 mM EDTA, pH 7.4) ensuring that the volume of the buffer is about ten times the volume of the cell pellet. The cells are pooled into a centrifuge tube (50 mL) and homogenized with a Polytron at setting 6 for 10 sec. The homogenate is transferred into a Potter-Elvjehm homogenizer and homogenized with 3 strokes. The homogenate is centrifuged at 1500×g for 10 min at 4° C. (3100 rpm using SORVAL, model RT6000D, using rotor for 50 mL tubes). The pellet is discarded. The supernatant is centrifuged at 100,000×g for 60 min. at 4° C. (Beckman L8-80M ultracentrifuge; spin at 37,500 rpm with rotor type 70 Ti for 50 mL tubes; 38,000 rpm with type 80Ti for 15 mL tubes; or 35,800 rpm with rotor type 45Ti). The supernantant is discarded and the pellet suspended in 3 to 4 mL of Tris buffer (50 mM TRIS—HCl, pH 7.4). The protein content is estimated by the Bradford or Lowry method. The volume of the membrane suspension is adjusted with the membrane buffer (50 mM Tris-HCl containing 0.1% BSA and 0.1 mM PMSF) to give 3.0 mg/mL (or as appropriate) of protein. The membranes are aliquoted and stored at −70° C.
C. Radioligand Binding Assay
In wells of a 96-well format microtiter plate, is added 90, 110 or 130 μL (to make up a final volume of 200 μL) of assay buffer containing 50 mM of Tris-HCl (pH 7.4), […], 1 mg % aprotinin, 1 mg % leupeptin, 2 mg % 1,10-phenanthroline, 10 mg % trypsin inhibitor, and 0.1 mM PMSF. […]

Structure (SMILES) | pIC50 | inhibition at 0.1 µM
CC(=O)OCC(CN(C)C(=O)c1ccc2n1Cc1ccccc1N(C(=O)c1ccc(-c3ccccc3C(F)(F)F)c(C)c1)C2)OC(C)=O (stereo not drawn) [Example 13, 2-(Acetyloxy)-1-({methyl[(10-{[2-methyl-2′-trifluoromethyl-[1,1′-biphenyl]-4-yl]carbonyl}-10,11-dihydro-5H-pyrrolo[2,1-c][1,4]benzodiazepin-3-yl)carbonyl]amino}methyl)ethyl acetate] | 8.04 | 
COc1ccccc1-c1ccc(C(=O)N2Cc3ccc(C(=O)N(C)CC(O)CO)n3Cc3ccccc32)cc1C (stereo not drawn) [Example 14, 10-[(2′-Methoxy-2-methyl-[1,1′-biphenyl]-4-yl)carbonyl]-10,11-dihydro-5H-pyrrolo[2,1-c][1,4]benzodiazepine-3-carboxylic acid (2,3-dihydroxy-propyl)-methyl-amide] | 8.72 | 
COc1ccccc1-c1ccc(C(=O)N2Cc3ccc(C(=O)N(C)C[C@H](O)[C@@H](O)[C@H](O)[C@H](O)CO)n3Cc3ccccc32)cc1C [Example 17, 10-[(2′-Methoxy-2-methyl-[1,1′-biphenyl]-4-yl)carbonyl]-10,11-dihydro-5H-pyrrolo[2,1-c][1,4]benzodiazepine-3-carboxylic acid methyl-[(2S,3R,4R, 5R)-2,3,4,5,6-pentahydroxy-hexyl)-amide] | 8.99 | 
COc1cc2c(cc1OC)N(C(=O)c1ccc(-c3ccccc3C(F)(F)F)c(C)c1)Cc1ccc(C(=O)N(C)CC(O)CO)n1C2 (stereo not drawn) [Example 18, N-(2,3-Dihydroxypropyl)-7,8-dimethoxy-N-methyl-10-{[2-methyl-2′-trifluoromethyl-[1,1′-biphenyl]-4-yl]carbonyl}-10,11-dihydro-5H-pyrrolo[2,1-c][1,4]benzodiazepine-3-carboxamide] |  | 36%
COc1cc2c(cc1OC)N(C(=O)c1ccc(-c3ccccc3C(F)(F)F)c(C)c1)Cc1ccc(C(=O)N(CCO)CCO)n1C2 [Example 19, N,N-Bis(2-Hydroxyethyl)-7,8-dimethoxy-10-{[2-methyl-2′-trifluoromethyl-[1,1′-biphenyl]-4-yl]carbonyl}-10,11-dihydro-5H-pyrrolo[2,1-c][1,4]benzodiazepine-3-carboxamide] |  | 27%
COc1cc(-c2ccccc2C(F)(F)F)c(Cl)cc1C(=O)N1Cc2ccc(C(=O)N(C)C[C@H](O)[C@@H](O)[C@H](O)[C@H](O)CO)n2Cc2ccccc21 [Example 20, 10-{[6-Chloro-3-methoxy-2′-trifluoromethyl-[1,1′-biphenyl]-4-yl]carbonyl}-N-methyl-N-[(2S,3R,4R,5R)-2,3,4,5,6-pentahydroxyhexyl]-10,11-dihydro-5H-pyrrolo[2,1-c][1,4]benzodiazepine-3-carboxamide] | 8.96 | 
COc1cc(C(=O)N2Cc3ccc(C(=O)N(C)CC(O)CO)n3Cc3ccccc32)ccc1-c1ccccc1C(F)(F)F (stereo not drawn) [Example 21, N-(2,3-Dihydroxypropyl)-10-{[2-methoxy-2′-trifluoromethyl-[1,1′-biphenyl]-4-yl]carbonyl}-N-methyl-10,11-dihydro-5H-pyrrolo[2,1-c][1,4]benzodiazepine-3-carboxamide] | 8.76 | 
COc1cc(C(=O)N2Cc3ccc(C(=O)N(C)CC(O)CN(C)C)n3Cc3ccccc32)ccc1-c1ccccc1C(F)(F)F (stereo not drawn) [Example 22, N-[(3-Dimethylamino)-2-hydroxy-propyl]-10-{[2-methoxy-2′-trifluoromethyl-[1,1′-biphenyl]-4-yl]carbonyl}-N-methyl-10,11-dihydro-5H-pyrrolo[2,1-c][1,4]benzodiazepine-3-carboxamide] | 8.83 | 
O=C(c1ccc2n1Cc1ccccc1N(C(=O)c1ccc(-c3cccc4ccccc34)cc1Cl)C2)N1CCN(CCO)CC1 [Example 25, 2-{4-[10-{[2-Chloro-4-(naphthalen-1-yl)phenyl]carbonyl}-(10,11-dihydro-5H-pyrrolo[2,1-c][1,4]benzodiazepin-3-yl)carbonyl]piperazine-1-yl}-1-hydroxyethane] |  | 20%
Cc1ccc(-c2ccc(C(=O)N3Cc4ccc(C(=O)N(C)CC(O)CO)n4Cc4ccccc43)cc2)c2ccccc12 (stereo not drawn) [Example 26, 10-{[4-(4-Methyl-naphthalen-1-yl)phenyl]carbonyl}-10,11-dihydro-5H-pyrrolo[2,1-c][1,4]benzodiazepine-3-carboxylic acid (2,3-dihydroxy-propyl)-N-methylamide] | 7.25 | 
COc1cc2c(cc1OC)N(C(=O)c1ccc(-c3ccccc3OC)c(C)c1)Cc1ccc(C(=O)N(C)C[C@H](O)[C@@H](O)[C@H](O)[C@H](O)CO)n1C2 [Example 37, 7,8-Dimethoxy-10-[(2′-methoxy-2-methyl-[1,1′-biphenyl]-4-yl)carbonyl]-10,11-dihydro-5H-pyrrolo[2,1-c][1,4]benzodiazepine-3-carboxylic acid methyl-[(2S, 3R, 4R, 5R)-2,3,4,5,6-pentahydroxy-hexyl)-amide] |  | 53%
COc1cc(-c2ccccc2C)c(Cl)cc1C(=O)N1Cc2ccc(C(=O)N3CCN(CCO)CC3)n2Cc2ccccc21 [Example 39, {10-[(6-Chloro-3-methoxy-2′-methyl[1,1′-biphenyl]-4-yl)carbonyl]-10,11-dihydro-5H-pyrrolo[2,1-c][1,4]benzodiazepin-3-yl}[4-(2-hydroxyethyl)-1-piperazinyl]methanone] | 8.52 | 
COc1ccccc1-c1ccc(C(=O)N2Cc3ccc(C(=O)N4CCN(CCO)CC4)n3Cc3ccccc32)cc1C [Example 40, [4-(2-Hydroxyethyl)-1-piperazinyl]{10-[(2′-methoxy-2-methyl[1,1′-biphenyl]-4yl)carbonyl]-10,11-dihydro-5H-pyrrolo[2,1-c][1,4]benzodiazepin-3-yl}methanone] |  | 93%
COc1cc(C(=O)N2Cc3ccc(C(=O)N4CCN(CCO)CC4)n3Cc3ccccc32)ccc1-c1cccc2ccccc12 [Example 41, [4-(2-Hydroxyethyl)-1-piperazinyl]{10-[3-methoxy-4-(1-naphthyl)benzoyl]-10,11-dihydro-5H-pyrrolo[2,1-c][1,4]benzodiazepin-3-yl}methanone] |  | 71%
COc1cc(C(=O)N2Cc3ccc(C(=O)N4CCN(CCO)CC4)n3Cc3ccccc32)ccc1-c1ccccc1C [Example 42, [4-(2-Hydroxyethyl)-1-piperazinyl]{10-[(2-methoxy-2′-methyl[1,1′-biphenyl]-4yl)carbonyl]-10,11-dihydro-5H-pyrrolo[2,1-c][1,4]benzodiazepin-3-yl}methanone] |  | 89%
